# Experiment: physchem
# From the text: At pH 4 and 5, 0.1 M citrate buffers were used, while for pH 6, 7 and 8 a set of 0.1M phosphate buffers were used. Each buffer also contained 0.2 M NaCl. No cosolvents or other potentially solubilizing components were included. Buffer preparations were subdivided in order to individually test the solubility of only one material in a given buffer sample.
compound,measurement,setting,value
"CCCCCCCCCCCCC(C)(C)C(=O)OC[N+]1(C)CCN(C2=Nc3ccccc3Nc3sc(C)cc32)CC1.[I-] [Compound 18, 1-(((2,2-dimethyltetradecanoyl)oxy)methyl)-1-methyl-4-(2-methyl-10H-benzo[b]thieno[2,3-e][1,4]diazepin-4-yl)piperazin-1-ium iodide]",variation in solubility across the pH range studied,,less than 2 fold
same,solubility,"pH 4, aqueous buffer, thermodynamic from solid",0.1 to 0.2 ng/mL

# — patent US20110166128A1, “Diaryldiazepine Prodrugs for the Treatment of Neurological and Psychological Disorders” (priority 2010, published 2011)
